Assay results: publication PMC6271530, “Design and Optimisation of Bioactive Cyclic Peptides: Generation of a Down-Regulator of TNF Secretion” (Molecules, 2014)
“Also recorded” adds a separate entry of the source.

How the values were obtained:
[1] = tested on: CTB-stimulated J774A.1 cells; assay type: cell-based, murine
[2] = tested on: cytokine activated T-cells (Tck) co-cultured with monocytes; assay: IL-6 secretion in the cognate assay; assay type: cell-based, human; details: cognate model; 10 and 1 μg/mL peptide, relative to corresponding vehicle controls; formulated with cyclodextrin in the absence of transcutol
Experimental: (§1) A methodology described by Brennan et al. was employed. Peripheral blood lymphocytes (>95%) are enriched by Centrifugal Elutriation from plateletphoresis blood cones. CD45RO^+ Tcells (>98% purity) isolated by negative selection (Miltenyi, Bisley, UK) are re-suspended to a density of 1 × 10^6 cells/mL in RPMI 1640 containing 10% heat-inactivated AB^+ Human Serum. Cytokines are added to the cells at the following concentrations, hIL-2 @25 ng/mL, hIL-6 @100 ng/mL and hTNFα @25 ng/mL, all purchased from Peprotech UK (London, UK). The cells are incubated at 37 °C, 5% CO2 for 8 d after which they are pelleted twice at 1500 rpm for 5 min, counted and then used in a cognate experiment.
(§2) A methodology described by Brennan et al. is employed as follows. Elutriation-enriched (>95%) autologous monocytes are cultured at 1 × 10^6 cells/mL (100 microlitres) in RPMI 1640 containing 5% heat-inactivated FCS, in a 96-well, round-bottomed culture plate. After adjusting the cell number, cytokine activated T-cells (Tck) are added to the monocytes at a 5:1 ratio, the peptides are then added into the appropriate wells, with a final volume of 200 μL/well. Cells are co-cultured at 37 °C, 5% CO2 for 18 h after which the supernatants are removed and assayed for cytokine production by ELISA.

[3] = tested on: cytokine activated T-cells (Tck) co-cultured with monocytes; assay: IL-1 levels in the cognate model; assay type: cell-based, human
Experimental: as §1, §2

[4] = tested on: cells of the cytokine secretion experiments (replicates of each group); assay: MTT viability assay; assay type: cell-based; details: MTT 4 h at 37 °C, read at 620 nm
Experimental: After removal of the supernatants 100 μL of RPMI 1640 is added to each well of the plate. 10 μL of MTT dye (stock 5 mg/mL) is added to each well and incubated for 4 h at 37 °C 5% CO2, the MTT crystals are dissolved with SDS after which the plates are read at 620 nm.

[5] = tested on: lymphocytes; assay: TNF secretion by lymphocytes; assay type: cell-based; details: evidence to be presented separately
[6] = tested on: LPS-stimulated J774A.1 cells; assay: IL-6 secretion by LPS-stimulated J774A.1 cells; assay type: cell-based, murine; details: different concentrations, formulated with cyclodextrin in the absence of transcutol
[7] = tested on: cytokine activated T-cells (Tck) co-cultured with monocytes; assay: IL-10 levels in the cognate model; assay type: cell-based, human
Experimental: as §1, §2

[8] = tested on: LPS-stimulated J774A.1 cells; assay: TNF secretion by LPS-stimulated J774A.1 cells; assay type: cell-based, murine; details: for Change in level of secretion of TNF into the supernatant: LPS-stimulated J774A.1 cells, overnight exposure to cyclic peptide, TNF by sandwich ELISA, very high levels of TNF generated
[9] = tested on: cytokine activated T-cells (Tck) co-cultured with monocytes; assay: TNF secretion in T cell/monocyte co-culture (cognate assay); assay type: cell-based, human
Experimental: as §1, §2

[10] = Light scattering / homogeneity of the peptide preparation in aqueous medium; assay type: physicochemical; details: peptide dissolved in HFIP or transcutol in the presence of β-hydroxypropyl cyclodextrin, then aqueous medium; all levels of cyclodextrin employed
Description: In order to avoid problems with aggregation, which, it was feared, may affect the long-term stability of the product, a number of methodologies were employed to disperse the peptide prior to introduction into aqueous medium. Dissolution in HFIP, followed by drying down and addition of water worked reasonably well, as did dissolving in transcutol at high concentration, then adding to water. […] Detailed methodology is given in the Experimental section.

In the case of cyclo(-DF-R-Σ-S-DF-R-Σ-S-) [Lex 2.1], the “Change in level of secretion of TNF into the supernatant” value (“Change in level” for short) [1] is reported as “efficacy in terms of down-regulating the secretion of TNF”.
With “cyclo(DF-S-LC10-R-DF-S-LC10-R) [Lex 2.6]” the “Effect on IL-6 secretion” value [2] was “reductions in IL-6 secretion”, the “Effect on levels of IL-1” value [3] was “No effect” and the “Cell metabolic activity (MTT test)” value [4] was “no reduction in cell metabolic activity”. For the same substance, the “Effect on TNF secretion by lymphocytes” value [5] was “no effect on secretion by lymphocytes”, the “Change in level” value [1] was “inhibits secretion of TNF” and the “Effect on IL-6 secretion” value [6] was “Clear dose-related inhibition of IL-6 secretion”. For the same substance, the “Effect on levels of IL-10” value [7] was “No effect”, the “Dependence of TNF down-regulating activity on cyclodextrin:peptide ratio” value ([8]; LPS-stimulated J774A.1 cells overnight, formulated with beta hydroxypropyl cyclodextrin at different weight ratios, down to 1.25 (molar ratio 1.3)) was “independent of the ratio of peptide to cyclodextrin” and the “Change in level” value [8] was “most efficacious structure tested; also recorded: inhibits secretion of TNF”. For the same substance, the “Effect on TNF secretion of cells in the cognate assay” value ([9]; 10 µg/mL, formulated with cyclodextrin in the presence of transcutol (panel a), 18 h co-culture, ELISA) was “inhibitory activity is seen clearly”, the “Inhibition of TNF secretion elicited by modified T-cell phenotype” value ([9]; summary statement) was “inhibits secretion of TNF” and the “Light scattering of the preparation (homogeneity)” value [10] was “significant reduction in light scattering”.
For “cyclo(-DF-R-Nle-S-DF-R-Nle-S-) [Lex 2.3]”, the “Change in level” value [1] was “insufficient”.
In the case of “cyclo(-DF-S-Nle-R-DF-S-Nle-R-) [Lex 2.4]”, the “Change in level” value [1] is reported as “insufficient”.
In the case of cyclo(-DF-S-Σ-R-DF-S-Σ-R-) [Lex 2.2], the “Change in level” value [1] is reported as “efficacy in terms of down-regulating the secretion of TNF; also recorded: more efficacious”.
In the case of “cyclo(DF-R-LC10-S-DF-R-LC10-S) [Lex 2.5]”, the “Change in level” value [8] is reported as “strongly dose-related stimulatory activity”.
